Assay results as given in patent US20220039395A1, “INSECT CONTROL AGENTS” (priority 2018, published 2022).
Numbered stars: 1 amine (or outer) side, 2 acyl side, 3 side chain; on linkers, the order of the positions; unused ones are H or OH. Peptide text beside a SMILES is read from it. * marks the point of attachment. X1 = Brc1ccc2c(c1)-c1cc(N*)ccc1C2; Suc = O=C(CCC(=O)[*:2])[*:1]

Tests used:
Format in all cases: in vivo
Myzus persicae [1] = assay: Topical application by spraying, air brush; settings: 750 μl, 1×10^−5M of each peptide in Tween 24 0.1%, counted 48 hours post spray
Protocol: (§1) Aphids were exposed to test peptides in the absence of additional external stress conditions.
(§2) Brassica rapa (Chinese cabbage; Wong Bok) were infested with 30 adult Myzus persicae aphids per plant. Aphids were left at least 2 hours to settle and begin feeding from the host plant.
Spraying took place inside an externally vented fume cupboard. […] To ensure spray tracking, all sprayed solutions had amaranth dye added, allowing the full surface of the plant to be evenly coated with the aerosolised compound.
The plants to be sprayed were placed inside a plastic disposal bag, inside the fume cupboard. This was used to control the area exposed to the aerosolised liquid, to avoid extensive spraying and cleaning inside the fume cupboard. The bag was further lined with absorbent paper towel to again help contain and control spray.
Each experiment had three controls:
i) no vehicle or peptide air spray only, negative control to assess effect of spraying on aphid ability to remain attached to the plant; ii) vehicle spray only (Tween 24 0.1%); and iii) Imidacloprid positive control (28.3 μM).
Imidacloprid was always applied last to prevent any possibility of stray pesticide being left inside the disposal bag and contaminating a test peptide applied plant.
Spray volumes for all solutions for this experiment 750 μl.
A clean air brush (ABEST AC06k30) was loaded with 750 μl of peptide solution diluted in […] 0.1% vehicle. For this experiment there were three test conditions: 1895 alone (1×10^−5M); 2129 alone (1×10^−5M); and a simultaneous co-application of 1895+2129 together (1×10^−5M of each peptide). During application, the air brush was held within the plastic bag and the compressor turned on. The air brush was then gently sprayed back and forth across the plant. […]
Post peptide application, each condition was placed into its own individual Bugdorm (Watkins and Doncaster, 44545), to prevent repulsed or displaced aphids moving from one condition to another. Numbers of alive and dead aphids on the plant were counted 48 hours post spray, and the presence of any fresh nymphs noted. […]

Myzus persicae [2] = assay: Topical application by spraying, Potter Spray Tower; settings: 3000 μl, 1×10^−5M of each peptide in ATPlus 0.1%, counted 48 hours post spray
Protocol: as §1, §2
Spraying took place inside a designated spray room. To ensure spray tracking, all sprayed solutions had amaranth dye added.
Potter Spray Tower (Burkard Manufacturing) was ‘primed’ by spraying 1000 μl of liquid coating the inside of the tower. Two controls were used:
i) vehicle spray only (Croda ATPlus UEP 100 LQ-(CQ) 0.1% v/v); and ii) Imidacloprid positive control (28.3 μM).
Imidacloprid was always applied last and via a second, separate, Potter Tower, to prevent any possibility of stray pesticide being left inside the tower and contaminating a test peptide-applied plant.
Spray volumes for all solutions were 3000 μl. The 6.9 mm spray head was loaded with 3000 μl of a 1×10^−5M peptide solution diluted in ATPlus 0.1%. After spraying was completed the plant was allowed to rest on the spray platform for 30 seconds to allow settling of the sprayed chemical.
For this experiment there were three test conditions: 1895 alone (1×10^−5M); 2129 alone (1×10^−5M); and a simultaneous co-application of 1895+2129 together (1×10^−5M of each peptide).
Post peptide application, each condition was placed into its own individual Bugdorm (Watkins and Doncaster, 44545), to prevent repulsed or displaced aphids moving from one condition to another. Numbers of alive and dead aphids on the plant were counted 48 hours post spray, and the presence of any fresh nymphs noted. Plants were watered prior to spraying but not afterwards to eliminate the possibility of drowning any aphids present or washing off the sprayed liquid.
Post spraying, the spray head was filled with over 3000 μl of 70% ethanol and sprayed until empty. The spray head was carefully removed and rinsed with 70% ethanol as some amaranth dye was observed on the spray head. […]

Myzus persicae [3] = assay: Feeding of aphids with peptides in artificial diet; life span and fecundity; settings: M. persicae on artificial diet containing the peptide; mean ± SE
Protocol: A standard artificial diet for M. persicae was produced as described in Van Emden (2009) and provided the basal diet to which neuropeptide analogues were added for screening purposes. Neuropeptide analogues were diluted individually in the artificial diet to a pre-determined recommended concentration as follows: 1895 (3.5×10^-5 M) and 2019 (2.0×10^-5 M). Feeding apparatus were constructed using a set-up developed by […] et al (2009). For this, a piece of Parafilm was stretched over a Plexiglas ring (h=4 cm, Ø=3 cm) and 100 μl of the artificial diet containing the desired neuropeptide analogue was pipette onto the Parafilm membrane. A second piece of Parafilm, stretched to 4 times the original thickness, was stretched over the original layer, sandwiching the artificial diet between two layers of Parafilm. A strip of Parafilm was wrapped around the circumference of the Plexiglas ring, sealing in the diet. A plastic ring (h=1.2 cm, Ø=3.4 cm) was subsequently placed over the Parafilm layer, creating a walled chamber in which to house test aphids in contact with the Parafilm layer containing the artificial diet. Finally, a small Petri dish (h=1 cm, Ø=3.6 cm), modified for ventilation with net cloth, was placed on top of each feeding apparatus to prevent aphid escape. To obtain aphids for use in experiments, reproducing anholocyclic adults were placed on individual excised leaves of Chinese cabbage at densities of 5 adults per leaf and allowed to reproduce for 24 h. The stem of each excised leaf was held within a 0.5 mL Eppendorf tube containing water via a punctured hole in the Eppendorf lid, and placed individually within a microcage (L=4 cm, Ø=9.5 cm). Following 24 h, adults were removed and resultant first instar nymphs (<1 day old and synchronised in age to within 24 h) retained. Nymphs were allowed to develop on the Chinese cabbage for 5 days. On day 5, (3rd instar) nymphs were transferred onto the artificial diet containing a neuropeptide analogue at densities of 1 per feeding chamber and monitored daily until death. Aphids were transferred to fresh artificial diet (containing neuropeptide analogue) every 5 days. Life history traits recorded include age at first reproduction, number of nymphs produced per 24 h period, and lifespan. From these parameters, lifetime fecundity and daily fecundity were calculated. Control groups were set up involving aphids reared on the host plant, an artificial diet without a neuropeptide analogue, and an artificial diet containing the native CAPA neuropeptide.

Compound | % Lethality (Myzus persicae [1]) [%] | % Lethality (Myzus persicae [2]) [%] | Age at 1st reproduction (Myzus persicae [3]) [days] | Ave. daily fecundity (Myzus persicae [3]) [nymphs] | Days as reproducing adult (Myzus persicae [3]) | Life span (Myzus persicae [3]) [days] | Lifetime fecundity (Myzus persicae [3]) [nymphs]
2Abf-Suc-FGPRL-NH2 [compound 1895] | 27 | 34 | 11.5 ± 0.5 | 1.1±0.1 | 5.8 ± 1.8 | 19.8 ± 2.5 | 6.4±2.0
CC[C@H](C)[C@H](NC(=O)[C@H](CCCNC(=N)N)NC(=O)[C@@H]1CCCN1C(=O)[C@@H](NC(=O)[C@H](C)NC(=O)CCC(=O)Nc1ccc2c(c1)-c1cc(Br)ccc1C2)[C@@H](C)O)C(N)=O [compound 2129, 2Abf-Suc-ATPRI-NH2] ({X1-Suc}-ATPRI-NH2) | 30 | 32 | 12.4 ± 0.7 | 1.2±0.1 | 7.17 ± 1.5 | 21.0 ± 2.3 | 8.8 ± 2.0
